Measurements as given in patent US8765723B2, “Analogues of cilostazol” (CoNCERT Pharmaceuticals Inc., priority 2007, dated 2014).
Like-named read-outs stand apart in the source and are kept apart here.

Experiment: Determination of metabolic stability in human liver microsomes
Format: in vitro ADME
Conditions: for half-life at 1 μM: pH 7.4, read-out: In vitro half-life t1/2 in human liver microsomes; for half-life at 1 μM / In vitro half-life t1/2 in human liver microsomes: 0.5 mg/mL human liver microsomes, 1 μM test compound, 2 mM NADPH, 37° C., 0-30 minutes; for stabilization in comparison to undeuterated counterpart (in words): repeated experiment, Table 4, vs cilostazol (106, 100) or dehydrocilostazol (110)
Description: Human liver microsomes (20 mg/mL) were obtained from Xenotech, LLC (Lenexa, Kans.). β-nicotinamide adenine dinucleotide phosphate, reduced form (NADPH), magnesium chloride (MgCl2), and dimethyl sulfoxide (DMSO) were purchased from Sigma-Aldrich.
7.5 mM stock solutions of test compounds, as well as cilostazol and 7-ethoxycoumarin (as a positive control) were prepared in DMSO. The 7.5 mM stock solutions were diluted to 50 μM in acetonitrile (ACN). The 20 mg/mL human liver microsomes were diluted to 0.625 mg/mL in 0.1 M potassium phosphate buffer, pH 7.4, containing 3 mM MgCl2. The diluted microsomes were added to wells of a 96-well deep-well polypropylene plate in triplicate. Ten μL of the 50 μM test compound was added to the microsomes and the mixture was pre-warmed for 10 minutes. Reactions were initiated by addition of pre-warmed NADPH solution. The final reaction volume was 0.5 mL and contained 0.5 mg/mL human liver microsomes, 1 μM test compound, and 2 mM NADPH in 0.1 M potassium phosphate buffer, pH 7.4, and 3 mM MgCl2. The reaction mixtures were incubated at 37° C., and 50 μL aliquots were removed at 0, 5, 10, 20, and 30 minutes and added to shallow-well 96-well plates which contained 50 μL of ice-cold ACN with internal standard to stop the reactions. The plates were stored at 4° C. for 20 minutes after which 100 μL of water was added to the wells of the plate before centrifugation to pellet precipitated proteins. Supernatants were transferred to another 96-well plate and analyzed for amounts of parent remaining by LC-MS/MS using an Applied Bio-systems API 4000 mass spectrometer.
The in vitro t1/2s for test compounds were calculated from the slopes of the linear regression of % parent remaining (ln) vs incubation time relationship: in vitro t1/2=0.693/k, where k=−[slope of linear regression of % parent remaining(ln) vs incubation time]. Data analysis was performed using Microsoft Excel Software.

## O=C1CCc2cc(OCCCCc3nnnn3C3CCCCC3)ccc2N1 [Cilostazol, 6-[4-(1-Cyclohexyl-1H-tetrazol-5-yl)butoxy]-3,4-dihydro-2(1H)-quinolinone]
First experiment (Table 3)
  half-life at 1 μM: 0.78 h
Repeated experiment (Table 4)
  In vitro half-life t1/2 in human liver microsomes: 1.03 h

## [2H]C1([2H])C(=O)Nc2ccc(OCCCCc3nnnn3C3([2H])C([2H])([2H])C([2H])([2H])C([2H])([2H])C([2H])([2H])C3([2H])[2H])cc2C1([2H])[2H] [Compound 100, 6-(4-(1-(Cyclohexyl-d11)-1H-tetrazol-5-yl)butoxy)-3,3,4,4-d4-dihydroquinolin-2(1H)-one]
First experiment (Table 3)
  In vitro half-life t1/2 in human liver microsomes: 0.695 h
Previous (first) experiment, Table 3
  stabilization in human liver microsomes (in words): no stabilization
Repeated experiment (Table 4)
  In vitro half-life t1/2 in human liver microsomes: 1.64 h
  stabilization in comparison to undeuterated counterpart (in words): stabilized

## [2H]C1([2H])CCC(n2nnnc2CCCCOc2ccc3c(c2)C([2H])([2H])C([2H])([2H])C(=O)N3)CC1 [Compound 101, 6-(4-(1-(4,4-d2-Cyclohexyl)-1H-tetrazol-5-yl)butoxy)-3,3,4,4-d4-dihydroquinolin-2(1H)-one]
First experiment (Table 3)
  half-life at 1 μM: 0.753 h

## [2H]C1([2H])C([2H])([2H])C([2H])([2H])C([2H])(n2nnnc2CCCCOc2ccc3c(c2)CCC(=O)N3)C([2H])([2H])C1([2H])[2H] [Compound 106, 6-(4-(1-(Cyclohexyl-d11)-1H-tetrazol-5-yl)butoxy)-3,4-dihydroquinolin-2(1H)-one]
First experiment (Table 3)
  half-life at 1 μM: 1.32 h
Repeated experiment (Table 4)
  In vitro half-life t1/2 in human liver microsomes: 1.45 h
  stabilization in comparison to undeuterated counterpart (in words): stabilized

## [2H]C1([2H])CCC(n2nnnc2CCCCOc2ccc3c(c2)CCC(=O)N3)CC1 [Compound 107, 6-(4-(1-(4,4-d2-Cyclohexyl)-1H-tetrazol-5-yl)butoxy)-3,4-dihydroquinolin-2(1H)-one]
First experiment (Table 3)
  half-life at 1 μM: 0.595 h

## [2H]C1([2H])C([2H])([2H])C([2H])([2H])C([2H])(n2nnnc2CCCCOc2ccc3[nH]c(=O)ccc3c2)C([2H])([2H])C1([2H])[2H] [Compound 110]
First experiment (Table 3)
  half-life at 1 μM: 1.24 h
Repeated experiment (Table 4)
  In vitro half-life t1/2 in human liver microsomes: Stable*
  stabilization in comparison to undeuterated counterpart (in words): stabilized

## [2H]C1([2H])CC(n2nnnc2CCCCOc2ccc3c(c2)CCC(=O)N3)CC([2H])([2H])C1([2H])[2H] [Compound 112, 6-(4-(1-(3,3,4,4,5,5-d6-Cyclohexyl)-1H-tetrazol-5-yl)butoxy)-3,4-dihydroquinolin-2(1H)-one]
Repeated experiment (Table 4)
  half-life at 1 μM: 1.32 h

## [2H]C1([2H])CC(n2nnnc2CCCCOc2ccc3[nH]c(=O)ccc3c2)CC([2H])([2H])C1([2H])[2H] [Compound 113, 6-(4-(1-(3,3,4,4,5,5-d6-Cyclohexyl)-1H-tetrazol-5-yl)butoxy)-3,4-dihydroquinolin-2(1H)-one]
Repeated experiment (Table 4)
  half-life at 1 μM: 1.49 h

## O=c1ccc2cc(OCCCCc3nnnn3C3CCCCC3)ccc2[nH]1 [Dehydrocilostazol, reference compound]
Repeated experiment (Table 4)
  half-life at 1 μM: 1.31 h
